Several values for one entry are separate records, joined by “and”; a condition that tells them apart may be missing. Equal values may be shown once. Read-outs that look alike come from different tables or passages of the source.
Legend:
[1] = system: MTX-sensitive HT-1080 tumor xenograft; assay: Tumor response (in vivo surviving fraction) with leucovorin rescue, HT-1080 xenograft; design: species or system athymic nude mice
Method: At 6 hours post 3′-fluoromethotrexate administration mice received i.p. hydration of 1.0 cc normal saline and at 24 hours received leucovorin (Bedford Laboratories, Bedford, Ohio) rescue therapy (36). This protocol allows the mice to survive what would otherwise be a fatal dosage of 3′-fluoromethotrexate and is analogous to that used in high-dose MTX therapy in humans. Tumor growth was monitored post-therapy.
The 3 perpendicular axes of the tumor were measured with a micrometer and the tumor volume modeled as a spheroid, i.e., v=π/6a·b·c, where a, b, c are the dimensions of the tumor axes in cm.
The parameter DT0 is the mean doubling time of the untreated, control group for each xenograft tumor model and TGD is the tumor growth delay for the treated tumor (the difference in tumor doubling time between the treated tumor and DT0).
Analysis of the tumor growth post-therapy allows for a comparison of the efficacy of MTX and 3′-fluoromethotrexate in terms of SF, the fraction of cells in the pretreatment tumor surviving therapy (Eqn. 3).

[2] = system: human sarcoma cell line HT-1080; assay: In vitro cytotoxicity against HT-1080, XTT/PMS cell viability assay

| Molecule | SF, in vivo surviving fraction ([1]; 200 mg/kg, HT-1080 model) | SF, in vivo surviving fraction ([1]; 400 mg/kg i.v. bolus, HT-1080 model) | IC50 ([2]; Homo sapiens, HT-1080, 24 h, read-out: IC50 for 24 h drug exposure, normal medium = RPMI-1640 medium + 10% FCS, 24 h exposure) | IC50 ([2]; Homo sapiens, HT-1080, 24 h, read-out: IC50 for 24 h drug exposure, treated medium = thymidine-free RPMI-1640 + 10% FCS, 24 h exposure) | SF, in vivo surviving fraction ([1]; mouse, in vivo) | IC50 ([2]; read-out: IC50 for 24 h drug exposure, normal medium = RPMI-1640 medium + 10% FCS, 24 h exposure) | IC50 ([2]; read-out: IC50 for 24 h drug exposure, treated medium = thymidine-free RPMI-1640 + 10% FCS, 24 h exposure) |
| --- | --- | --- | --- | --- | --- | --- | --- |
| CN(Cc1cnc2nc(N)nc(N)c2n1)c1ccc(C(=O)N[C@@H](CCC(=O)O)C(=O)O)cc1 [MTX, methotrexate] | 0.64±0.08 | 0.56±0.07 | 445 ± 148 nM | 69 ± 19 nM | – | – | – |
| N-(2-Fluoro-4-amino-4-deoxy-N-methyl-pteroyl)-L-glutamic acid [FMTX] | – | – | – | – | 0.29±0.06 and 0.42±0.04 | 345 ± 117 nM | 26 ± 5 nM |
